Key:
[1] = EFdA rat PK studies (SC and IM); type: in vivo, Wistar Han rats
Text: A total of seven naïve male Wistar Han rats, 200-250 g, were received from the supplier equipped with a surgically-implanted jugular vein catheter (JVC) for blood sample collection. Following an acclimation period, the animals were assigned to the study based on acceptable health as determined by a staff veterinarian and catheter patency. Animals were placed into two groups of 3 rats per group. Fasting of the animals before or after dosing was not required.
On Day 1 each animal in Group 1 received a single subcutaneous injection of prepared test article at a target dose level of 20 mg/kg and at a dose volume of 0.33 mL/kg. Each animal in Group 2 received a single intramuscular injection of prepared test article into a thigh muscle at a target dose level of 20 mg/kg and at a dose volume of 0.33 mL/kg. The injection sites were shaved prior to dosing and identified with an indelible marker for daily monitoring during the study. The animals were manually restrained for dosing and were not sedated. The dose suspension was mixed well by inversion before each dose to ensure homogeneity. […] In addition, all animals are monitored twice daily by the veterinary staff for clinical abnormalities. […]
The PK plasma samples were analyzed by the Testing Facility to determine the concentration of EFdA using an LC-MS/MS Research Grade Assay (RGA-1) with sensitivity to 0.1 ng/mL. […]

[2] = tested on: HIV pseudotyped virus (NL4-3 provirus, luciferase reporter), WT; experiment: PSV (pseudotyped virus) assay, WT; settings: Human immunodeficiency virus 1, NL43, 72 h, read-out: WT IC50
Method: A pseudotyped virus assay (PSV) was used to assess the potency of the HIV inhibitor.
The PSV assay was performed by using U373 cells stably transformed to express human CD4, the primary receptor for HIV entry and either human CXCR4 or human CCR5 which are the co-receptors required for HIV entry as target cells for infection. […] This dose-range was applied to U373 cells and the pre-made pseudotyped virus added. The amount of luciferase signal produced after 3 days of culture was used to reflect the level of pseudotyped virus infection. An IC50, or the concentration of inhibitor required to reduce PSV infection by 50% from the infection containing no inhibitor was calculated. […] IC50 values were determined from a 10 point dose response curve using 3-4-fold serial dilution for each compound, which spans a concentration range>1000 fold.
These values are plotted against the molar compound concentrations using the standard four parameter logistic equation: y=((Vmax*x^n)/(K^n+x^n))+Y2

[3] = tested on: HIV pseudotyped virus, M184V; type: cell-based; settings: U373 cells (CD4, CXCR4 or CCR5), luciferase signal after 3 days

| Structure (SMILES) | Clinical observations and injection site reactions ([1]; 20 mg/kg single SC or IM injection, study period to Day 29) | Detectable duration of exposure of EFdA ([1]; IM and SC administration of 20 mg/kg EFdA) | IC50 [2] | IC50 [3] |
| --- | --- | --- | --- | --- |
| C#C[C@]1(CO)O[C@@H](n2cnc3c(N)nc(F)nc32)C[C@@H]1O [EFdA, (2R,3S,5R)-5-(6-amino-2-fluoro-9H-purin-9-yl)-2-ethynyl-2-(hydroxymethyl)tetrahydrofuran-3-ol] | No abnormal clinical observations and no injection site reactions | less than 8 days | – | – |
| C#C[C@]1(COC(=O)CCCCCCCCC(=O)O)O[C@@H](n2cnc3c(N)nc(F)nc32)C[C@@H]1O [Example 9, 10-(((2R,3S,5R)-5-(6-amino-2-fluoro-9H-purin-9-yl)-2-ethynyl-3-hydroxytetrahydrofuran-2-yl)methoxy)-10-oxodecanoic Acid] | – | – | 35 nM | 167 nM |
| C#C[C@]1(COC(=O)COCCOCCOC)O[C@@H](n2cnc3c(N)nc(F)nc32)C[C@@H]1O [Example 7, ((2R,3S,5R)-5-(6-amino-2-fluoro-9H-purin-9-yl)-2-ethynyl-3-hydroxytetrahydrofuran-2-yl)methyl 2-(2-(2-methoxyethoxy)ethoxy)acetate] | – | – | 4 nM | 24 nM |
| C#C[C@]1(COC(=O)CCCCCCCCCCCCCCCCCCC(=O)O)O[C@@H](n2cnc3c(N)nc(F)nc32)C[C@@H]1O [Example 11, 20-(((2R,3S,5R)-5-(6-amino-2-fluoro-9H-purin-9-yl)-2-ethynyl-3-hydroxytetrahydrofuran-2-yl)methoxy)-20-oxoicosanoic Acid] | – | – | 8 nM | 37 nM |
| C#C[C@]1(COC(=O)COCCOC)O[C@@H](n2cnc3c(N)nc(F)nc32)C[C@@H]1O [Example 6, ((2R,3S,5R)-5-(6-amino-2-fluoro-9H-purin-9-yl)-2-ethynyl-3-hydroxytetrahydrofuran-2-yl)methyl 2-(2-methoxyethoxy)acetate] | – | – | 4 nM | 25 nM |
| C#C[C@]1(COC(=O)CCCC)O[C@@H](n2cnc3c(N)nc(F)nc32)C[C@@H]1OC(=O)CCCCCC [Example 20, (2R,3S,5R)-5-(6-amino-2-fluoro-9H-purin-9-yl)-2-ethynyl-2-((pentanoyloxy)methyl)tetrahydrofuran-3-yl Heptanoate] | – | – | 5 nM | 25 nM |
| C#C[C@]1(COC(=O)Cc2ccccc2)O[C@@H](n2cnc3c(N)nc(F)nc32)C[C@@H]1O [Example 3, [(2R,3S,5R)-5-(6-amino-2-fluoro-9H-purin-9-yl)-2-ethynyl-3-hydroxyoxolan-2-yl]methyl 2-phenylacetate] | – | – | 2 nM | 10 nM |
| C#C[C@]1(COC(=O)[C@H]2CC[C@H](C(C)(C)C)CC2)O[C@@H](n2cnc3c(N)nc(F)nc32)C[C@@H]1O [Example 4, ((2R,3S,5R)-5-(6-amino-2-fluoro-9H-purin-9-yl)-2-ethynyl-3-hydroxytetrahydrofuran-2-yl)methyl trans-4-(tert-butyl)cyclohexane-1 carboxylate] | – | – | 3 nM | 17 nM |
| C#C[C@]1(COC(=O)CCCC(=O)OCCCCCCCCCCCCCC)O[C@@H](n2cnc3c(N)nc(F)nc32)C[C@@H]1O [Example 14, ((2R,3S,5R)-5-(6-amino-2-fluoro-9H-purin-9-yl)-2-ethynyl-3-hydroxytetrahydrofuran-2-yl)methyl Tetradecyl Glutarate] | – | – | 33 nM | 148 nM |
| C#C[C@]1(COC(=O)C2CCCCC2)O[C@@H](n2cnc3c(N)nc(F)nc32)C[C@@H]1O [Example 1, ((2R,3S,5R)-5-(6-amino-2-fluoro-9H-purin-9-yl)-2-ethynyl-3-hydroxytetrahydrofuran-2-yl)methyl Cyclohexanecarboxylate] | – | – | 2 nM | 8 nM |
| C#C[C@]1(COC(=O)CCCCCCCCCCCCC(=O)O)O[C@@H](n2cnc3c(N)nc(F)nc32)C[C@@H]1O [Example 10, 14-(((2R,3S,5R)-5-(6-amino-2-fluoro-9H-purin-9-yl)-2-ethynyl-3-hydroxytetrahydrofuran-2-yl)methoxy)-14-oxotetradecanoic Acid] | – | – | 9 nM | 44 nM |
| C#C[C@]1(COC(=O)CCCC)O[C@@H](n2cnc3c(NC(=O)CCCCCCCCCCCCC)nc(F)nc32)C[C@@H]1O [Example 27, ((2R,3S,5R)-2-ethynyl-5-(2-fluoro-6-tetradecanamido-9H-purin-9-yl)-3-hydroxytetrahydrofuran-2-yl)methyl Pentanoate] | – | – | 8 nM | 46 nM |
| C#C[C@]1(COC(=O)C(CCC)CCC)O[C@@H](n2cnc3c(N)nc(F)nc32)C[C@@H]1OC(=O)CCCCCCCCCCC [Example 29, (2R,3S,5R)-5-(6-amino-2-fluoro-9H-purin-9-yl)-2-ethynyl-2-(((2-propylpentanoyl)oxy)methyl)tetrahydrofuran-3-yl Dodecanoate] | – | – | 238 nM | 1350 nM |
| C#C[C@]1(COC(=O)CCCCCC)O[C@@H](n2cnc3c(N)nc(F)nc32)C[C@@H]1OC(=O)CCCCCC [Example 16, (2R,3S,5R)-5-(6-amino-2-fluoro-9H-purin-9-yl)-2-ethynyl-2-((heptanoyloxy)methyl)tetrahydrofuran-3-yl Heptanoate] | – | – | 8 nM | 31 nM |
